Measured values published in patent US5856095A, “Identification of two novel mutant alleles of human thiopurine S-methyltransferase, and diagnostic uses thereof” (priority 1995, dated 1999).
Numbering of substitutions follows the chain as printed. Names and notes keep the numbering of the source. “Also recorded” adds a separate entry of the source. Like-named read-outs stand apart in the source and are kept apart here.

Assays:
TPMT460 = test system: TPMT460
Text: (§1) FIGS. 9A, 9B, and 9C depict comparison of TPMT mRNA, protein, and activity levels in yeast transformed with vector alone without any insert (lane 1), vector with wild-type cDNA (lane 2), vector with cDNA containing G460A (lane 3), vector with cDNA containing A719G (lane 4), vector with cDNA containing both G460A and A719G (TPMTB) (lanes 5 and 6).
(§2) The wild type and mutant cDNA clones were used as templates for site-directed mutagenesis. PCR conditions were as described above except that annealing temperature was changed to 50° C. and 1.3 units of Pyrococcus furiosus DNA polymerase (Stratagene, La Jolla, Calif.) was used. […] In order to prepare cDNA containing either mutation found in this patient, two reverse primers were designed for further mutagenesis. […] The resultant PCR products were also ligated into the expression vector. […] Nucleotide structures of all cDNAs were confirmed by sequencing.
(§3) Yeast cells were treated with Lyticase (Sigma, St. Louis, Mo.), sedimented after washing with a buffer (pH 6.2) containing 20 mM 2-[N-morpholino]ethanesulfonic acid (MES) and 1.5M sorbitol, and resuspended with Tris-HCl buffer (pH 7.8) containing 100 KIU/Ml aprotinin and 1 mM phenylmethylsulfonyl fluoride. After sonication, the cytosolic fraction was obtained by centrifugation at 100,000 g for 60 min at 4° C. […] The level of expression was measured by Western blot analysis.
(§4) The amount of TPMT in each reaction was made the same (0.57 μg TPMT) by adjusting the amount of yeast cytosol according to TPMT protein levels detected by the Western-blot analysis.

[1] = patients with TPMT deficiency treated with standard dosages; cited from earlier work
TPMT719 = molecular target: T1, TPMT719 (Homo sapiens, UniProt P51580, Y240C)
T1 sequence (P51580 1-245 Y240C): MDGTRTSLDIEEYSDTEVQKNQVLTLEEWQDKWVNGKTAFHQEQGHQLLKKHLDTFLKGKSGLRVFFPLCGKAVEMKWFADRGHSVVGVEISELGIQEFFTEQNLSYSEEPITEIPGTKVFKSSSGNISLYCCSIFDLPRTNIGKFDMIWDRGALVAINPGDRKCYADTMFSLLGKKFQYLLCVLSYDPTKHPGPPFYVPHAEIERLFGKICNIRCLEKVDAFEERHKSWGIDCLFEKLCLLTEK
Text: as §1, §2, §3, §4

TPMTB = molecular target: T2, TPMTB (Homo sapiens, UniProt P51580, A154T/Y240C); assay: S-methylation of 6-MP catalyzed by TPMTB (G460A and A719G) expressed in yeast (kinetic parameters, activity); type: biochemical; settings: 6MP concentrations up to 2 mM
T2 construct: the whole mutant proteins are expressed in yeast; made in house; host or cells: yeast strain 2805
T2 sequence (P51580 1-245 A154T/Y240C): T1 sequence (P51580 1-245 Y240C) with A154T
Experimental: Yeast cells transformed with recombinant expression vectors or the vector without TPMT cDNA (control) were grown on galactose-containing medium for 24 hr at 30° C. Yeast cells were treated with Lyticase (Sigma, St. Louis, Mo.), sedimented after washing with a buffer (pH 6.2) containing 20 mM 2-[N-morpholino]ethanesulfonic acid (MES) and 1.5M sorbitol, and resuspended with Tris-HCl buffer (pH 7.8) containing 100 KIU/Ml aprotinin and 1 mM phenylmethylsulfonyl fluoride. After sonication, the cytosolic fraction was obtained by centrifugation at 100,000 g for 60 min at 4° C. The concentration of protein in yeast lysates was determined using the Bio-RadDC protein assay (Lowry, O. H., et al., J. Biol. Chem. 193:265-275 (1951)). The level of expression was measured by Western blot analysis.
These reaction conditions differ from that previously published (Krynetski, E. Y. et al., Mol. Pharmacol. 47:1141-1147 (1995)); i.e. incubation at 37 C instead of 21.5 C, analysis of MeMP production formation instead of substrate disappearance, and the use of higher substrate concentrations in the present study. The amount of TPMT in each reaction was made the same (0.57 μg TPMT) by adjusting the amount of yeast cytosol according to TPMT protein levels detected by the Western-blot analysis. […]

[2] = Hematopoietic toxicity of thiopurines in TPMT-deficient patients; type: in vivo, human
Text: TPMT phenotype was assigned on the basis of erythrocyte TPMT activity, according to the criteria of Weinshilboum and Sladek (Weinshilboum and Sladek, Am. J. Hum. Genet. 32:651-662 (1980)).

TPMTA = TPMTA (Homo sapiens, UniProt P51580, A80P); settings: heterologously expressed TPMTA
[3] = human, in vivo
TPMT [4] = assay: TPMT enzymatic activity of yeast lysates expressing wild-type or G238C mutant TPMT cDNA (Example 1); type: biochemical, human; settings: for enzymatic activity, fold difference between wild-type and G238C mutant TPMT: expressed in yeast; for TPMT activity in yeast lysates: yeast transformed with wild-type or G238C mutant TPMT cDNA
Experimental: In all experiments on heterologous expression of TPMT, yeast transformed with the expression vector without the TPMT cDNA insert was used as a control.
Enzymatic activity of yeast lysates was assayed in a total volume of 1 ml, and formation of the S-methylated thiopurine product was determined by HPLC.

TPMT [5] = assay: Intrinsic stability of recombinant TPMT proteins at 37° C. in vitro; type: biochemical, human; settings: for TPMT activity at 37° C., 0 hr: yeast lysates, 2 mM 6MP and 1 mM SAM; for time to inactivation: 0.1M Tris-HCl pH 7.5
Experimental: Yeast cytosols expressing wild-type TPMT460, or TPMT719 protein were incubated in 0.1M Tris-HCl (pH 7.5) at 37° C. […] The assay of TPMT activity was then allowed to proceed for 15 min at 37° C., and MeMP was measured as described above. Total protein concentrations of yeast lysate in the incubation mixture were 0.09, 0.37, 0.08 mg/ml for the wild-type, TPMT460, and TPMT719, respectively, to give equal amount of TPMT in the incubation. The same assay mixture without yeast lysate served as the blank, and the background values for non-enzymatic methylation (<10%) were subtracted from all values obtained. An aliquot of sample at each time point was taken for Western blot analysis. The samples at 0° C., 0 hr served as controls for the blots with TPMT460 and TPMT719.

[6] = yeast lysates, 10 μM 6MP and 1 mM SAM (FIG. 9C)

In the case of `C[S+](CC[C@H](N)C(=O)O)C[C@H]1O[C@@H](n2cnc3c(N)ncnc32)[C@H](O)[C@@H]1O` (some centres unmarked) [SAM], the “increase in Km for co-substrate SAM versus wild-type” value (TPMT460; co-substrate SAM) is reported as 200 fold.

In the case of `Cn1cnc([N+](=O)[O-])c1Sc1ncnc2nc[nH]c12` [azathioprine], the hematopoietic toxicity [1] is listed as “severe hematopoietic toxicity”.

In the case of `Sc1ncnc2nc[nH]c12` [6MP, 6-mercaptopurine], the “increase in Km for 6MP versus wild-type” value (TPMT460; substrate 6MP) is reported as 46 fold, the “catalytic activity reduced compared with wild-type, normalized to TPMT content” value (TPMT460; [6]) is reported as 9 fold and the “intrinsic clearance (Vmax/Km) relative to wild-type” value (TPMT719) is reported as “comparable to wild-type”. The “catalytic activity reduced compared with wild-type, normalized to TPMT content” value (TPMT719; [6]) was 1.4 fold, the “TPMT activity (S-methylation of 6MP)” value (TPMTB) was “no activity of TPMTB could be detected; also recorded: undetectable” and the hematopoietic toxicity ([2]; TPMT-deficient child with acute lymphoblastic leukemia, oral 75 mg/m2 per day) was “severe hematopoietic toxicity”. The hematopoietic toxicity ([2]; TPMT-deficient child with acute lymphocytic leukemia, 50 mg/m2/day) was “severe hematopoietic toxicity”, the “Vmax/Km ratio, fold lower than wild-type TPMT” value (TPMTA) was 5 fold and the “erythrocyte concentration of TGNs, fold higher than the population median” value [3] was greater than 15 fold. The “erythrocyte concentration of TGNs, population median” value [3] was 280 pmol/ml pRBC and the hematopoietic toxicity [1] was “severe hematopoietic toxicity”.

B1: TPMTA: mutant TPMT with G238C point mutation, Ala80→Pro, expressed in yeast (protein)
chain: T1 sequence (P51580 1-245 Y240C) with A80P, C240Y
For B1, the “enzymatic activity, fold difference between wild-type and G238C mutant TPMT” value (TPMT [4]) was “approximately 100 fold”, the “enzymatic activity, fold difference between wild-type and G238C mutant TPMT” value (TPMT [4]; listed as mutant TPMT) was “≈ 100 fold” and the “TPMT activity in yeast lysates” value (TPMT [4]) was < 1.0 nmol/hr per mg of protein.

B2: wild-type TPMT: wild-type human thiopurine S-methyltransferase expressed in yeast (protein)
chain: T1 sequence (P51580 1-245 Y240C) with C240Y
With B2 the “TPMT activity in yeast lysates” value (TPMT [4]) was 113-123 nmol/hr per mg of protein, the TPMT activity remaining (TPMT [5]; 37° C., 12 hr) was 30% and the “TPMT activity at 37° C., 0 hr” value (TPMT [5]) was 83.7 nmol/min/mg TPMT.

B3: TPMT460: TPMT from cDNA containing only G460A (Ala154→Thr), expressed in yeast (protein)
chain: T1 sequence (P51580 1-245 Y240C) with A154T, C240Y
In the case of B3, the time to inactivation (TPMT [5]; 37° C.) is reported as no more than 4 h and the “TPMT activity at 37° C., 0 hr” value (TPMT [5]) is reported as 142.5 nmol/min/mg TPMT.

B4: TPMT719: TPMT from cDNA containing only A719G (Tyr240→Cys), expressed in yeast (protein)
chain: T1 sequence (P51580 1-245 Y240C)
For B4, the time to inactivation (TPMT [5]; 37° C.) was no more than 4 h and the “TPMT activity at 37° C., 0 hr” value (TPMT [5]) was 88.6 nmol/min/mg TPMT.
